#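 Compound exposure: 48 hours, 5 concentrations, 96-well plates. Here, GI50 denotes the concentration required for 50% inhibition of growth. TGI denotes the concentration required for complete inhibition of growth.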
# Experiments:
# Assay in all cases: growth of human tumour cells (NCI), 48 h
# [1] = tested on: SN12C renal
# [2] = tested on: SK-MEL-2 melanoma
# [3] = tested on: UACC-62 melanoma
# [4] = tested on: HCC-2998 colon
# [5] = tested on: U251 CNS
# [6] = tested on: NCI/ADR-RES ovarian
# [7] = tested on: PC-3 prostate
# [8] = tested on: CCRF-CEM leukemia
# [9] = tested on: OVCAR-3 ovarian
# [10] = tested on: NCI-H522 lung
# [11] = tested on: MOLT-4 leukemia
# [12] = tested on: SF-268 CNS
# [13] = tested on: LOX IMVI melanoma
# [14] = tested on: OVCAR-8 ovarian
# [15] = tested on: CAKI-1 renal
# [16] = tested on: SK-OV-3 ovarian
# [17] = tested on: HS 578T breast
# [18] = tested on: NCI-H226 lung
# [19] = tested on: MDA-MB-435
# [20] = tested on: NCI-H460 lung
# [21] = tested on: COLO 205 colon
# [22] = tested on: SNB-19 CNS
# [23] = tested on: RXF 393 renal
# [24] = tested on: ACHN renal
# [25] = tested on: SF-295 CNS
# [26] = tested on: M14 melanoma
# [27] = tested on: HCT-15 colon
# [28] = tested on: HCT-116 colon
# [29] = tested on: IGROV1 ovarian
# [30] = tested on: RPMI-8226 leukemia
# [31] = tested on: A498 renal
# [32] = tested on: 786-0 renal
# [33] = tested on: A549 NSCLC
# [34] = tested on: MALME-3M melanoma
# [35] = tested on: KM12 colon
# [36] = tested on: SR leukemia
# [37] = tested on: MCF7 breast
# [38] = tested on: SK-MEL-28 melanoma
# [39] = tested on: TK-10 renal
# [40] = tested on: NCI-H23 lung
# [41] = tested on: UO-31 renal
# [42] = tested on: OVCAR-4 ovarian
# [43] = tested on: T-47D breast
# [44] = tested on: HOP-62 NSCLC
# [45] = tested on: DU-145 prostate
# [46] = tested on: K-562 leukemia
# [47] = tested on: OVCAR-5 ovarian
# [48] = tested on: HOP-92 NSCLC
# [49] = tested on: SK-MEL-5 melanoma
smiles,measurement,setting,value
O=C1C(Cl)=C(Nc2ccccc2O)C(=O)N1Cc1ccccc1,GI50,[1],16.4 µM
same,TGI,[1],29.9 µM
same,GI50,[2],30.9 µM
same,TGI,[2],96 µM
same,GI50,[3],19.1 µM
same,TGI,[3],46.4 µM
same,GI50,[4],20.9 µM
same,TGI,[4],35.3 µM
same,GI50,[5],19.2 µM
same,TGI,[5],36.5 µM
same,GI50,[6],24.6 µM
same,TGI,[6],57.1 µM
same,GI50,[7],18.1 µM
same,TGI,[7],39.1 µM
same,GI50,[8],14.5 µM
same,TGI,[8],32.7 µM
same,GI50,[9],18 µM
same,TGI,[9],31.9 µM
same,GI50,[10],29.1 µM
same,TGI,[10],97.2 µM
same,GI50,[11],19.6 µM
same,TGI,[11],> 100 µM
same,GI50,[12],20.8 µM
same,TGI,[12],52.2 µM
same,GI50,[13],16.5 µM
same,TGI,[13],30.1 µM
same,GI50,[14],18.3 µM
same,TGI,[14],34 µM
same,GI50,[15],26 µM
same,TGI,[15],68.7 µM
same,GI50,[16],28.5 µM
same,TGI,[16],71.9 µM
same,GI50,[17],17.3 µM
same,TGI,[17],38.1 µM
same,GI50,[18],20.1 µM
same,TGI,[18],48.8 µM
same,GI50,[19],19.7 µM
same,TGI,[19],37.4 µM
same,GI50,[20],21 µM
same,TGI,[20],42.5 µM
same,GI50,[21],24.2 µM
same,TGI,[21],46.8 µM
same,GI50,[22],35.8 µM
same,TGI,[22],> 100 µM
same,GI50,[23],12.5 µM
same,TGI,[23],30.7 µM
same,GI50,[24],20.6 µM
same,TGI,[24],55.8 µM
same,GI50,[25],26.2 µM
same,TGI,[25],52.9 µM
same,GI50,[26],18.4 µM
same,TGI,[26],32.3 µM
same,GI50,[27],19.5 µM
same,TGI,[27],39.9 µM
same,GI50,[28],19.6 µM
same,TGI,[28],33.7 µM
same,GI50,[29],29.7 µM
same,TGI,[29],> 100 µM
same,GI50,[30],12.5 µM
same,TGI,[30],27.2 µM
same,GI50,[31],18.4 µM
same,TGI,[31],40.6 µM
same,GI50,[32],16.8 µM
same,TGI,[32],30.4 µM
same,GI50,[33],20.3 µM
same,TGI,[33],46 µM
same,GI50,[34],22.8 µM
same,TGI,[34],40.4 µM
same,GI50,[35],17.8 µM
same,TGI,[35],36.2 µM
same,GI50,[36],51.7 µM
same,TGI,[36],> 100 µM
same,GI50,[37],24.5 µM
same,TGI,[37],64.6 µM
same,GI50,[38],25.1 µM
same,TGI,[38],55.4 µM
same,GI50,[39],28.7 µM
same,TGI,[39],62.1 µM
same,GI50,[40],17.9 µM
same,TGI,[40],31.7 µM
same,GI50,[41],15.9 µM
same,TGI,[41],29.3 µM
same,GI50,[42],43.1 µM
same,TGI,[42],> 100 µM
same,GI50,[43],23.3 µM
same,TGI,[43],52.7 µM
same,GI50,[44],18.5 µM
same,TGI,[44],32.6 µM
same,GI50,[45],18.2 µM
same,TGI,[45],32.1 µM
same,GI50,[46],15.5 µM
same,TGI,[46],33.6 µM
same,GI50,[47],18.5 µM
same,TGI,[47],32.7 µM
same,GI50,[48],21.4 µM
same,TGI,[48],48.3 µM
same,GI50,[49],15.3 µM
same,TGI,[49],28.6 µM

# — PubChem BioAssay (NCI)
